Results reported in PubChem BioAssay (NCI).
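Interpolation was linear, between the two tested concentrations surrounding the appropriate level; five concentrations were tested over 48 hours in 96-well plates. At the TGI there is no net growth.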

Assays:
Test in all cases: NCI anticancer screen, dose series, 48 h
CAKI-1 renal = test system: CAKI-1 renal
TK-10 renal = test system: TK-10 renal
PC-3 prostate = test system: PC-3 prostate
SNB-19 CNS = test system: SNB-19 CNS
MALME-3M melanoma = test system: MALME-3M melanoma
A498 renal = test system: A498 renal
UACC-257 melanoma = test system: UACC-257 melanoma
U251 CNS = test system: U251 CNS
SK-MEL-28 melanoma = test system: SK-MEL-28 melanoma
IGROV1 ovarian = test system: IGROV1 ovarian
SW-620 colon = test system: SW-620 colon
MOLT-4 leukemia = test system: MOLT-4 leukemia
SNB-75 CNS = test system: SNB-75 CNS
HS 578T breast = test system: HS 578T breast
M14 melanoma = test system: M14 melanoma
DU-145 prostate = test system: DU-145 prostate
MDA-N = test system: MDA-N
RXF 393 renal = test system: RXF 393 renal
SF-268 CNS = test system: SF-268 CNS
SK-MEL-5 melanoma = test system: SK-MEL-5 melanoma
HCT-15 colon = test system: HCT-15 colon
SK-OV-3 ovarian = test system: SK-OV-3 ovarian
OVCAR-8 ovarian = test system: OVCAR-8 ovarian
ACHN renal = test system: ACHN renal
MDA-MB-435 = test system: MDA-MB-435
COLO 205 colon = test system: COLO 205 colon
NCI-H522 lung = test system: NCI-H522 lung
SN12C renal = test system: SN12C renal
SF-539 CNS = test system: SF-539 CNS
HCC-2998 colon = test system: HCC-2998 colon
MCF7 breast = test system: MCF7 breast
NCI-H23 lung = test system: NCI-H23 lung
RPMI-8226 leukemia = test system: RPMI-8226 leukemia
LOX IMVI melanoma = test system: LOX IMVI melanoma
CCRF-CEM leukemia = test system: CCRF-CEM leukemia
NCI/ADR-RES ovarian = test system: NCI/ADR-RES ovarian
HL-60(TB) leukemia = test system: HL-60(TB) leukemia
SK-MEL-2 melanoma = test system: SK-MEL-2 melanoma
NCI-H460 lung = test system: NCI-H460 lung
HCT-116 colon = test system: HCT-116 colon
OVCAR-3 ovarian = test system: OVCAR-3 ovarian
MDA-MB-231 breast = test system: MDA-MB-231 breast
BT-549 breast = test system: BT-549 breast
HOP-62 NSCLC = test system: HOP-62 NSCLC
NCI-H226 lung = test system: NCI-H226 lung
OVCAR-5 ovarian = test system: OVCAR-5 ovarian
T-47D breast = test system: T-47D breast
A549 NSCLC = test system: A549 NSCLC
UO-31 renal = test system: UO-31 renal
SF-295 CNS = test system: SF-295 CNS
786-0 renal = test system: 786-0 renal
KM12 colon = test system: KM12 colon
UACC-62 melanoma = test system: UACC-62 melanoma
K-562 leukemia = test system: K-562 leukemia
HT29 colon = test system: HT29 colon

CC(C)C(/C=C/c1ccc(Cl)cc1)=N\NC(=S)NN
TGI (CAKI-1 renal): > 100 µM | TGI (TK-10 renal): > 100 µM | TGI (PC-3 prostate): > 100 µM | TGI (SNB-19 CNS): > 100 µM | TGI (MALME-3M melanoma): > 100 µM | TGI (A498 renal): > 100 µM | TGI (UACC-257 melanoma): 98.9 µM | TGI (U251 CNS): > 100 µM | TGI (SK-MEL-28 melanoma): > 100 µM | TGI (IGROV1 ovarian): > 100 µM | TGI (SW-620 colon): > 100 µM | TGI (MOLT-4 leukemia): > 100 µM | TGI (SNB-75 CNS): 91.8 µM | TGI (HS 578T breast): 72.3 µM | TGI (M14 melanoma): > 100 µM | TGI (DU-145 prostate): > 100 µM | TGI (MDA-N): > 100 µM | TGI (RXF 393 renal): 96.6 µM | TGI (SF-268 CNS): > 100 µM | TGI (SK-MEL-5 melanoma): > 100 µM | TGI (HCT-15 colon): > 100 µM | TGI (SK-OV-3 ovarian): > 100 µM | TGI (OVCAR-8 ovarian): > 100 µM | TGI (ACHN renal): 65.6 µM | TGI (MDA-MB-435): 85.2 µM | TGI (COLO 205 colon): > 100 µM | TGI (NCI-H522 lung): 32.4 µM | TGI (SN12C renal): > 100 µM | TGI (SF-539 CNS): > 100 µM | TGI (HCC-2998 colon): > 100 µM | TGI (MCF7 breast): 52.5 µM | TGI (NCI-H23 lung): > 100 µM | TGI (RPMI-8226 leukemia): > 100 µM | TGI (LOX IMVI melanoma): 33.7 µM | TGI (CCRF-CEM leukemia): 13.7 µM | TGI (NCI/ADR-RES ovarian): 48.1 µM | TGI (HL-60(TB) leukemia): 30.7 µM | TGI (SK-MEL-2 melanoma): 44.5 µM | TGI (NCI-H460 lung): 41.8 µM | TGI (HCT-116 colon): 11.4 µM | TGI (OVCAR-3 ovarian): 78 µM | TGI (MDA-MB-231 breast): > 100 µM | TGI (BT-549 breast): > 100 µM | TGI (HOP-62 NSCLC): > 100 µM | TGI (NCI-H226 lung): 93 µM | TGI (OVCAR-5 ovarian): > 100 µM | TGI (T-47D breast): > 100 µM | TGI (A549 NSCLC): > 100 µM | TGI (UO-31 renal): > 100 µM | TGI (SF-295 CNS): > 100 µM | TGI (786-0 renal): > 100 µM | TGI (KM12 colon): > 100 µM | TGI (UACC-62 melanoma): 30.5 µM | TGI (K-562 leukemia): > 100 µM | TGI (HT29 colon): > 100 µM
